Laboratory results as given in USRE39148E1, “Potentiation of the Microbicide 2-(Thiocyanomethylthio)benzothiazole using an n-alkyl heterocyclic compound” (Buckman Laboratories International, Inc., priority 1995, dated 2006).

Assays:
[1] = tested on: Desulfovibrio desulfuricans, ATCC 7757; assay: 28 Day API Test; format: cell-based; set-up: key: 0=no growth; 4=heavy growth; details: alone
Method: The bactericidal effects of the combined use of TCMTB and N-alkyl heterocyclic compounds against bacteria were measured using an 28 Day API Test. Combinations of TCMTB (compound A) and N-dodecyl morpholine (DDM, compound B) and of TCMTB (compound A) and N-dodecyl imidazole (DDI, compound B) were tested against the bateria Desulfovibrio desulfuricans, ATCC 7757. Busan® 1030 product, a 30% TCMTB formulation, DDM (99%), and DDI (99%) were used in this testing. The Busan® […] product is available from Buckman Laboratories, Memphis Tenn. The medium used was a modified API Broth having the following composition: […] The compounds were dissolved in 1.0 L of deionized water to form the medium. The pH of the medium was adjusted to a final pH of 6.9 with 1 N sodium hydroxide prior to sterilization. The medium was sterilized at 121° C. for 20 minutes and then allowed to cool to room temperature. The medium is then inoculated by adding 10 ml per liter of a 24-hr. broth culture of Desulfovibrio desulfuricans. From stock solutions of the chemicals to be tested, sufficient amounts of the compounds were added to 1 oz. glass bottles so that when a bottle was completely filled, the desired concentration of the chemical was present. The bottles were then completely filled with the inoculated API broth (10 mL innoculum per liter medium) in a manner such as to exclude all air and provide an anaerobic state. The bottles were capped tightly and inverted gently to mix the contents and, at the same time, to make sure no air bubbles were present. Incubation was carried out at 37° C. for 28 days. Growth was indicated by blackening of the culture medium, whereas those bottles having sufficient chemical to inhibit growth would remain clear. Observations of growth were made at the end of 7 days, 14 days, 21 days and 28 days. […] The minimum inhibitory concentration (MIC) was defined as the lowest concentration tested which gave no growth in the bottle (clear liquid). […] Others may be calculated from the data presented.

[2] = tested on: Sphaerotilus natans, ATCC 15291; assay: 18 Hour Stokes Broth Test; format: cell-based; details: alone
Method: The bactericidal effects of the combined use of TCMTB and N-alkyl heterocyclic compounds against bacteria were measured using an 18 Hour Stokes Broth Test. Combinations of TCMTB and N-dodecyl morpho line (DDM) and of TCMTB and N-dodecyl imidazole (DDI) were tested against the bacteria Sphaerotilus natans, ATCC 15291. In this test, compound A was Busan® 1030 product, a 30% TCMTB formulation, and compound B was either DDM (99%) or DDI (99%). The Busan® […] product is available from Buckman Laboratories, Memphis, Tenn. The Stokes broth substrate used to evaluate effectiveness of microbicidal compositions against Sphaerotilus natans was prepared by adding the following to one liter of water: [table] The broth was adjusted to pH 7.0 with sodium hydroxide. Forty gram portions were then added to 180 mL Pyrex milk dilution bottles fitted with […] rubber stoppers and then sterilized. Each of the following substances was then added to each bottle in the order listed. • 1. Sterile distilled water as required in each individual case to bring the total weight of the contents of each bottle to 50 g after all subsequent additions specified below (including inoculation with the aqueous suspension of test organism) have been made. • 2. Solution of toxicant or control agent to be evaluated in such individual volumes as to give the concentration desired in parts per million by weight. • 3. One mL of a 24-hour old S. natans culture grown in Stokes broth. After the inoculant suspension of the test organism was added to the bottles they were incubated at 28° C. for 18 hours. After this incubation, a 1 mL of sample was withdrawn from each bottle, diluted, plated on Stokes agar, and incubated for 72-96 hr. at 28-30° C. Stokes agar was prepared like the broth with 12.5 g agar added per liter. The number of colonies on each plate was determined and converted to the count per milliliter of substrate. […] A percentage kill of 90 percent or higher represents an extremely useful bactericidal composition. […] Others may be calculated from the data presented.

With `CCCCCCCCCCCCN1CCOCC1` [Dodecyl Morpholine, N-dodecyl morpholine] the “growth, Day 7” value ([1]; Table 4, 10 ppm) was 4, the “growth, Day 14” value ([1]; Table 4, 10 ppm) was 4 and the “growth, Day 21” value ([1]; Table 4, 10 ppm) was 4. For the same compound, the “growth, Day 28” value ([1]; Table 4, 10 ppm) was 4, the “growth, Day 7” value ([1]; Table 4, 20 ppm) was 4 and the “growth, Day 14” value ([1]; Table 4, 20 ppm) was 4. For the same compound, the “growth, Day 21” value ([1]; Table 4, 20 ppm) was 4, the “growth, Day 28” value ([1]; Table 4, 20 ppm) was 4 and the “growth, Day 7” value ([1]; Table 4, 40 ppm) was 2. The “growth, Day 14” value ([1]; Table 4, 40 ppm) was 3, the “growth, Day 21” value ([1]; Table 4, 40 ppm) was 4 and the “growth, Day 28” value ([1]; Table 4, 40 ppm) was 4. The “growth, Day 7” value ([1]; Table 4, 80 ppm) was 0, the “growth, Day 14” value ([1]; Table 4, 80 ppm) was 1 and the “growth, Day 21” value ([1]; Table 4, 80 ppm) was 3. For the same compound, the “growth, Day 28” value ([1]; Table 4, 80 ppm) was 4, the “growth, Day 7” value ([1]; Table 4, 160 ppm) was 0 and the “growth, Day 14” value ([1]; Table 4, 160 ppm) was 0. The “growth, Day 21” value ([1]; Table 4, 160 ppm) was 2, the “growth, Day 28” value ([1]; Table 4, 160 ppm) was 3 and the “growth, Day 7” value ([1]; Table 4, 320 ppm) was 0. The “growth, Day 14” value ([1]; Table 4, 320 ppm) was 0, the “growth, Day 21” value ([1]; Table 4, 320 ppm) was 0 and the “growth, Day 28” value ([1]; Table 4, 320 ppm) was 0. The “growth, Day 7” value ([1]; Table 5, 1 ppm) was 4, the “growth, Day 14” value ([1]; Table 5, 1 ppm) was 4 and the “growth, Day 21” value ([1]; Table 5, 1 ppm) was 4. The “growth, Day 28” value ([1]; Table 5, 1 ppm) was 4, the “growth, Day 7” value ([1]; Table 5, 2 ppm) was 4 and the “growth, Day 14” value ([1]; Table 5, 2 ppm) was 4. For the same compound, the “growth, Day 21” value ([1]; Table 5, 2 ppm) was 4, the “growth, Day 28” value ([1]; Table 5, 2 ppm) was 4 and the “growth, Day 7” value ([1]; Table 5, 4 ppm) was 4. For the same compound, the “growth, Day 14” value ([1]; Table 5, 4 ppm) was 4, the “growth, Day 21” value ([1]; Table 5, 4 ppm) was 4 and the “growth, Day 28” value ([1]; Table 5, 4 ppm) was 4. The “growth, Day 7” value ([1]; Table 5, 8 ppm) was 2, the “growth, Day 14” value ([1]; Table 5, 8 ppm) was 4 and the “growth, Day 28” value ([1]; Table 5, 8 ppm) was 4. For the same compound, the “growth, Day 7” value ([1]; Table 5, 16 ppm) was 0, the “growth, Day 14” value ([1]; Table 5, 16 ppm) was 0 and the “growth, Day 21” value ([1]; Table 5, 16 ppm) was 0. The “growth, Day 28” value ([1]; Table 5, 16 ppm) was 0, the “growth, Day 7” value ([1]; Table 5, 32 ppm) was 0 and the “growth, Day 14” value ([1]; Table 5, 32 ppm) was 0. The “growth, Day 28” value ([1]; Table 5, 32 ppm) was 0, the “% Kill” value ([2]; Table 2, 1 ppm) was 58.4% and the CFU/mL ([2]; Table 2, 1 ppm) was 1.58 × 10^6 CFU/mL. The “% Kill” value ([2]; Table 2, 2 ppm) was 67.4%, the CFU/mL ([2]; Table 2, 2 ppm) was 1.24 × 10^6 CFU/mL and the “% Kill” value ([2]; Table 2, 5 ppm) was 77.6%. The CFU/mL ([2]; Table 2, 5 ppm) was 8.51 × 10^5 CFU/mL, the CFU/mL ([2]; Table 2, 10 ppm) was <10^3 CFU/mL and the CFU/mL ([2]; Table 2, 20 ppm) was <10^3 CFU/mL.

`CCCCCCCCCCCCn1ccnc1` [Dodecyl Imidazole, N-dodecyl imidazole] was tested, and the “% Kill” value ([2]; Table 3, 1 ppm) was 75.1%, the CFU/mL ([2]; Table 3, 1 ppm) was 1.26 × 10^6 CFU/mL and the “% Kill” value ([2]; Table 3, 2 ppm) was 86.5%. For the same compound, the CFU/mL ([2]; Table 3, 2 ppm) was 6.80 × 10^5 CFU/mL, the CFU/mL ([2]; Table 3, 5 ppm) was <10^3 CFU/mL and the CFU/mL ([2]; Table 3, 10 ppm) was <10^3 CFU/mL. The CFU/mL ([2]; Table 3, 20 ppm) was <10^3 CFU/mL, the CFU/mL ([2]; Table 3, 50 ppm) was <10^3 CFU/mL and the CFU/mL ([2]; Table 3, 100 ppm) was <10^3 CFU/mL.
